2 molecules from PMC5145814 (Molecular Cell, 2016) can be followed below.

For one assay, the target named is T1, RFS-1/RIP-1 (Caenorhabditis elegans, UniProt P34348).
T1 sequence (P34348 1-245): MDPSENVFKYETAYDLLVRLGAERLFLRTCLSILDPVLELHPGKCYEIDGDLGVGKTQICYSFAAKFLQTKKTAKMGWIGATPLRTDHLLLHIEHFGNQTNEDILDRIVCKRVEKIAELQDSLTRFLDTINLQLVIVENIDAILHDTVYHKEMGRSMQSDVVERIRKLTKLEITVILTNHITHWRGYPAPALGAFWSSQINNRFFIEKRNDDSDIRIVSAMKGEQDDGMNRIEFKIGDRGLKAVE
T1 sequence (Q21621 1-209 partner): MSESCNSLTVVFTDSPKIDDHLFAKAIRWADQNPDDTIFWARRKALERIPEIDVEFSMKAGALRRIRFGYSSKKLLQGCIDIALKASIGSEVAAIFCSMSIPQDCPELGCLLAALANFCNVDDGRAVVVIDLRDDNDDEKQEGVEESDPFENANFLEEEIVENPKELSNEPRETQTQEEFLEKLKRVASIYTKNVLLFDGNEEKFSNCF
The assay is described as follows: stopped-flow Cy3 fluorescence, binding to RAD-51-ssDNA filament […]' end. Type of assay: biochemical. Particulars: 25°C; 50 nM RFS-1/RIP-1 pre-incubated with ADP; 1 μM RAD-51, 15 nM 5'-Cy3-43-mer.

Another assay has as its target T2, RAD-51 (Caenorhabditis elegans, UniProt G5EGG8).
T2 sequence (G5EGG8 1-357): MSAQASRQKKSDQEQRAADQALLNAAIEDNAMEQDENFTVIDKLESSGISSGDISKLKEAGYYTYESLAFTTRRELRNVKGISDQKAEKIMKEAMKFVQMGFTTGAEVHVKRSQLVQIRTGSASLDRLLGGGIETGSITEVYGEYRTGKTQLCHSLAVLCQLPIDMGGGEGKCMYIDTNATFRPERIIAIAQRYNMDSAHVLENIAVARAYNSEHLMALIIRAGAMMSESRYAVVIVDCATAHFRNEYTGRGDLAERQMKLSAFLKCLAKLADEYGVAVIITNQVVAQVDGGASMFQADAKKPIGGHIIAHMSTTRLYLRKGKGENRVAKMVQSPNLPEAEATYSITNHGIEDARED
Kind of assay: fluorescence titration, fixed TNP-ATP concentration. The conditions noted are these: 25°C; fluorescent ATP analog; labelled compound. Type of assay: binding.

For the molecule `Nc1ncnc2c1ncn2[C@@H]1O[C@H](COP(=O)(O)OP(=O)(O)O)[C@@H](O)[C@H]1O` [ADP], the “Δ Cy3 fluorescence” value at RFS-1/RIP-1 was “RFS-1/RIP-1 was pre-incubated with ADP (Figures 5C and 5D)”.

TNP-ATP: on RAD-51, the Kd was ~3.5 µM.
